Reference: patent US8895695B2, “Template-fixed beta-hairpin peptidomimetics with CXCR4 antagonizing activity” (priority 2003, dated 2014)
Where two headings read alike, the source gives them in different places. Numbered stars: 1 amine (or outer) side, 2 acyl side, 3 side chain; on linkers, the order of the positions; unused ones are H or OH. Bridge positions count the residues as written; N and C are the ends. Square brackets hold non-standard residues; d marks the D form. Peptide text beside a SMILES is read from it. X3 = COCCOCCOCC(=O)N[C@H]1C[C@@H](C(=O)[*:2])N([*:1])C1; Phe(4-F) = N[C@@H](Cc1ccc(F)cc1)C(=O)O; 2Nal = N[C@@H](Cc1ccc2ccccc2c1)C(=O)O; 4Pal = N[C@@H](Cc1ccncc1)C(=O)O; Cit = NC(=O)NCCC[C@H](N)C(=O)O; NMeK = CN[C@@H](CCCCN)C(=O)O

Legend:
in vitro = details: human
Protocol: Each peptide concentration was assayed in triplicate. […] Wells were then washed once with PBS and subsequently 100 μl MTT reagent (0.5 mg/mL in medium RPMI1640 and, respectively, DMEM) was added to the wells. This was incubated at 37° C. for 2 hours and subsequently the medium was aspirated and 100 μl isopropanol was added to each well. […] For each concentration averages were calculated from triplicates. The percentage of growth was calculated as follows: (OD595peptide-OD595Tz-OD595Empty well)/(OD595Tz-OD595Empty well)×100% and was plotted for each peptide concentration.
‘CCR5’ cells were cultured in DMEM medium with 4500 mg/ml glucose, 10% fetal bovine serum (FBS), supplemented with 50 U/ml Penicillin and 50 μg/ml Streptomycin (Pen/Strept.). Hut/4-3 cells were maintained in RPMI medium, 10% FBS, supplemented with Pen/Strept. and 10 mM HEPES. HELA cells and CCRF-CEM cells were maintained in RPMI1640 plus 5% FBS, Pen/Strept and 2 mM L-Glutamine. Cos-7 cells were grown in DMEM medium with 4500 mg/ml glucose supplemented with 10% FCS, Pen/Strept. and 2 mM L-Glutamine. All cell lines were grown at 37° C. at 5% CO2.

CXCR4 = CXCR4 (Homo sapiens, UniProt P61073); experiment: Ca2+-assay method 2 (Flexstation, SDF-1 induced calcium mobilization); type: cell-based; parameters: expressed in transfected cells; host or cells: mouse pre-B cell line 300-19; details: method 2 (Ex. 54-160), mouse pre-B cell line 300-19 with human CXCR4, 10 nM SDF-1
[1] = tested on: human red blood cells (hRBC); experiment: Hemolysis; type: cell-based
Outline: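 Percent lysis taken as OD540 of peptide-treated sample over OD540 of the water/0.1% Triton X-100 full-lysis control, with PBS giving 0%. Peptides at 100 μM exposed to PBS-washed human RBCs (20% v/v) for 1 hour at 37° C. before centrifugation and 20-fold dilution of supernatant.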

[2] = read-out: IC50 (nM) Ca^2+ assay
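For GI50 in this document: MTT reduction read as absorbance at 595 nm, blank-corrected and expressed as percent growth relative to the time-zero cell reading, triplicate wells per concentration.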

Sequence of CXCR4 (P61073 whole entry): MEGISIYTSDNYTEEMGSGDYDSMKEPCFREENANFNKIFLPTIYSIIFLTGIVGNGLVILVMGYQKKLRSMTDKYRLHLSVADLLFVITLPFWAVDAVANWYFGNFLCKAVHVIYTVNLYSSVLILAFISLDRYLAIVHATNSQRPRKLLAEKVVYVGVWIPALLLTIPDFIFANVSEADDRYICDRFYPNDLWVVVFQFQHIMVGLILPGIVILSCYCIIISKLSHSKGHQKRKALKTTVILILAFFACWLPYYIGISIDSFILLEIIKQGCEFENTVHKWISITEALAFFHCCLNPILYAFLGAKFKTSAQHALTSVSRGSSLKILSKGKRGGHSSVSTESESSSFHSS

## N=C(N)NCCC[C@@H]1NC(=O)[C@@H]2CSSC[C@H](NC(=O)[C@H](Cc3ccc4ccccc4c3)NC(=O)[C@H](CCCNC(=N)N)NC(=O)[C@H](CCCNC(=N)N)NC(=O)[C@H]3CCCN3C(=O)CNC1=O)C(=O)N[C@@H](Cc1ccc(O)cc1)C(=O)N[C@@H](CCC(N)=O)C(=O)N[C@@H](CCCCN)C(=O)N1CCC[C@@H]1C(=O)N1CCC[C@H]1C(=O)N[C@@H](Cc1ccc(O)cc1)C(=O)N[C@@H](CCCNC(=N)N)C(=O)N1CCC[C@H]1C(=O)N2 [Ex. 74] (cyclo(YRPCRG[dP]RR[2Nal]CYQK[dP]P); disulfide 4-11)
In vitro
  GI50 at 48 h: 40 µM
CXCR4; [2]
  IC50: 19.5 nM
[1]
  Hemolysis at 100 μM: 0.4%

## COCCOCCOCC(=O)N[C@H]1C[C@H]2C(=O)N[C@@H](Cc3ccc(O)cc3)C(=O)N[C@@H](CCCNC(=N)N)C(=O)N[C@@H](CCCNC(N)=O)C(=O)N[C@H]3CSSC[C@H](NC(=O)[C@H](Cc4c[nH]c5ccccc45)NC(=O)[C@H](CCCNC(=N)N)NC(=O)[C@H](CCCNC(=N)N)NC(=O)[C@H]4CCCN4C(=O)CNC(=O)[C@H](CCCNC(=N)N)NC3=O)C(=O)N[C@@H](Cc3ccc(O)cc3)C(=O)N[C@@H](CCCNC(N)=O)C(=O)N[C@@H](CCCCN)C(=O)N3CCC[C@@H]3C(=O)N2C1 [Ex. 116] (cyclo(YR[Cit]CRG[dP]RRWCY[Cit]K[dP][X3]); disulfide 4-11)
In vitro
  GI50 at 48 h: 20 µM
CXCR4; IC50 (nM) Ca^2+ assay
  IC50: 14.5 nM
[1]; percent hemolysis, 100 μM peptide, 20% v/v hRBC, 1 hour at 37° C.
  Hemolysis at 100 μM: 0%

## N=C(N)NCCC[C@@H]1NC(=O)[C@@H]2CSSC[C@H](NC(=O)[C@H](Cc3ccc4ccccc4c3)NC(=O)[C@H](CCCNC(=N)N)NC(=O)[C@H](Cc3ccc(F)cc3)NC(=O)[C@H]3CCCN3C(=O)CNC1=O)C(=O)N[C@@H](Cc1ccc(O)cc1)C(=O)N[C@@H](CCC(N)=O)C(=O)N[C@@H](CCCCN)C(=O)N1CCC[C@@H]1C(=O)N1CCC[C@H]1C(=O)N[C@@H](Cc1ccc(O)cc1)C(=O)N[C@@H](CCCNC(=N)N)C(=O)N[C@@H](CCCNC(N)=O)C(=O)N2 [Ex. 76] (cyclo(YR[Cit]CRG[dP][Phe(4-F)]R[2Nal]CYQK[dP]P); disulfide 4-11)
In vitro
  GI50 at 48 h: > 100 µM
CXCR4; [2]
  IC50: 5.6 nM
[1]
  Hemolysis at 100 μM: 0.1%

## N=C(N)NCCC[C@@H]1NC(=O)[C@@H]2CSSC[C@H](NC(=O)[C@H](Cc3c[nH]c4ccccc34)NC(=O)[C@H](CCCNC(=N)N)NC(=O)[C@H](CCCNC(=N)N)NC(=O)[C@H]3CCCN3C(=O)CNC1=O)C(=O)N[C@@H](Cc1ccc(O)cc1)C(=O)N[C@@H](CCC(N)=O)C(=O)N[C@@H](CCCCN)C(=O)N1CCC[C@@H]1C(=O)N1CCC[C@H]1C(=O)N[C@@H](Cc1ccc(O)cc1)C(=O)N[C@@H](CCCNC(=N)N)C(=O)N[C@@H](CCCNC(N)=O)C(=O)N2 [Ex. 108] (cyclo(YR[Cit]CRG[dP]RRWCYQK[dP]P); disulfide 4-11)
In vitro
  GI50 at 48 h: 70 µM
CXCR4; [2]
  IC50: 4.6 nM
[1]
  Hemolysis at 100 μM: 0%

## N=C(N)NCCC[C@@H]1NC(=O)[C@@H]2CSSC[C@H](NC(=O)[C@H](Cc3ccc4ccccc4c3)NC(=O)[C@H](CCCNC(=N)N)NC(=O)[C@H](CCCNC(=N)N)NC(=O)[C@H]3CCCN3C(=O)CNC1=O)C(=O)N[C@@H](Cc1ccc(O)cc1)C(=O)N[C@@H](CC(=O)O)C(=O)N[C@@H](CCCCN)C(=O)N1CCC[C@@H]1C(=O)N1CCC[C@H]1C(=O)N[C@@H](Cc1ccc(O)cc1)C(=O)N[C@@H](CCCNC(=N)N)C(=O)N[C@@H](CCCNC(N)=O)C(=O)N2 [Ex. 78] (cyclo(YR[Cit]CRG[dP]RR[2Nal]CYDK[dP]P); disulfide 4-11)
In vitro
  GI50 at 48 h: 69 µM
CXCR4; [2]
  IC50: 11 nM
[1]
  Hemolysis at 100 μM: 0.1%

## N=C(N)NCCC[C@@H]1NC(=O)[C@@H]2CSSC[C@H](NC(=O)[C@H](Cc3ccc4ccccc4c3)NC(=O)[C@H](CCCNC(=N)N)NC(=O)[C@H](CCCNC(=N)N)NC(=O)[C@H]3CCCN3C(=O)CNC1=O)C(=O)N[C@@H](Cc1ccc(O)cc1)C(=O)N[C@@H](CCC(N)=O)C(=O)N[C@@H](CCCCN)C(=O)N1CCC[C@@H]1C(=O)N1CCC[C@H]1C(=O)N[C@@H](CC(=O)O)C(=O)N[C@@H](CCCNC(=N)N)C(=O)N[C@@H](CCCNC(N)=O)C(=O)N2 [Ex. 88] (cyclo(DR[Cit]CRG[dP]RR[2Nal]CYQK[dP]P); disulfide 4-11)
In vitro
  GI50 at 48 h: 44 µM
CXCR4; [2]
  IC50: 2.5 nM
[1]
  Hemolysis at 100 μM: 0%

## CN1CC(=O)N[C@@H](CCCCN)C(=O)N2CCC[C@@H]2C(=O)N2CCC[C@H]2C(=O)N[C@@H](Cc2ccc(O)cc2)C(=O)N[C@@H](CCCNC(=N)N)C(=O)N[C@@H](CCCNC(N)=O)C(=O)N[C@H]2CSSC[C@H](NC(=O)[C@H](Cc3ccc4ccccc4c3)NC(=O)[C@H](CCCNC(=N)N)NC(=O)[C@H](CCCNC(=N)N)NC(=O)[C@H]3CCCN3C(=O)CNC(=O)[C@H](CCCNC(=N)N)NC2=O)C(=O)N[C@@H](Cc2ccc(O)cc2)C1=O [Ex. 129]
In vitro
  GI50 at 48 h: 23 µM
CXCR4; [2]
  IC50: 10.9 nM
[1]
  Hemolysis at 100 μM: 0%

## N=C(N)NCCC[C@@H]1NC(=O)[C@@H]2CSSC[C@H](NC(=O)[C@H](Cc3c[nH]c4ccccc34)NC(=O)[C@H](CCCNC(=N)N)NC(=O)[C@H](CCCNC(=N)N)NC(=O)[C@H]3CCCN3C(=O)CNC1=O)C(=O)N[C@@H](Cc1ccc(O)cc1)C(=O)N[C@@H](CCCNC(N)=O)C(=O)N[C@@H](CCCCN)C(=O)N1CCC[C@@H]1C(=O)N1CCC[C@H]1C(=O)N[C@@H](Cc1ccc(O)cc1)C(=O)N[C@@H](CCCCN)C(=O)N[C@@H](CCCNC(N)=O)C(=O)N2 [Ex. 106] (cyclo(YK[Cit]CRG[dP]RRWCY[Cit]K[dP]P); disulfide 4-11)
In vitro
  GI50 at 48 h: 83 µM
CXCR4; [2]
  IC50: 3.1 nM
[1]
  Hemolysis at 100 μM: 0%

## C[C@@H](O)[C@@H]1NC(=O)[C@H](CCCNC(=N)N)NC(=O)[C@H](Cc2ccc(O)cc2)NC(=O)[C@@H]2CCCN2C(=O)[C@H]2CCCN2C(=O)[C@H](CCCCN)NC(=O)[C@H](CCCNC(N)=O)NC(=O)[C@H](Cc2ccc(O)cc2)NC(=O)[C@@H]2CSSC[C@H](NC1=O)C(=O)N[C@@H](CCCNC(=N)N)C(=O)NCC(=O)N1CCC[C@@H]1C(=O)N[C@@H](CCCNC(=N)N)C(=O)N[C@@H](CCCNC(=N)N)C(=O)N[C@@H](Cc1ccc3ccccc3c1)C(=O)N2 [Ex. 131] (cyclo(YRTCRG[dP]RR[2Nal]CY[Cit]K[dP]P); disulfide 4-11)
In vitro
  GI50 at 48 h: 53 µM
CXCR4; [2]
  IC50: 2.4 nM
[1]
  Hemolysis at 100 μM: 0%

## CN1C(=O)[C@H](CCCNC(N)=O)NC(=O)[C@H](Cc2ccc(O)cc2)NC(=O)[C@@H]2CSSC[C@H](NC(=O)[C@H](CCCNC(N)=O)NC(=O)[C@H](CCCNC(=N)N)NC(=O)[C@H](Cc3ccc(O)cc3)NC(=O)[C@@H]3CCCN3C(=O)[C@H]3CCCN3C(=O)[C@@H]1CCCCN)C(=O)N[C@@H](CCCNC(=N)N)C(=O)NCC(=O)N1CCC[C@@H]1C(=O)N[C@@H](CCCNC(=N)N)C(=O)N[C@@H](CCCNC(=N)N)C(=O)N[C@@H](Cc1ccc3ccccc3c1)C(=O)N2 [Ex. 127] (cyclo(YR[Cit]CRG[dP]RR[2Nal]CY[Cit][NMeK][dP]P); disulfide 4-11)
In vitro
  GI50 at 48 h: 62 µM
CXCR4; [2]
  IC50: 52.2 nM
[1]
  Hemolysis at 100 μM: 0%

## N=C(N)NCCC[C@@H]1NC(=O)[C@@H]2CSSC[C@H](NC(=O)[C@H](Cc3ccc4ccccc4c3)NC(=O)[C@H](CCCNC(=N)N)NC(=O)[C@H](Cc3ccc(O)cc3)NC(=O)[C@H]3CCCN3C(=O)CNC1=O)C(=O)N[C@@H](Cc1ccc(O)cc1)C(=O)N[C@@H](CCC(N)=O)C(=O)N[C@@H](CCCCN)C(=O)N1CCC[C@@H]1C(=O)N1CCC[C@H]1C(=O)N[C@@H](Cc1ccc(O)cc1)C(=O)N[C@@H](CCCNC(=N)N)C(=O)N[C@@H](CCCNC(N)=O)C(=O)N2 [Ex. 54] (cyclo(YR[Cit]CRG[dP]YR[2Nal]CYQK[dP]P); disulfide 4-11)
In vitro
  GI50 at 48 h: 54 µM
CXCR4; [2]
  IC50: 6.9 nM
[1]
  Hemolysis at 100 μM: 0%

## CC(C)[C@@H]1NC(=O)[C@@H]2CCCN2C(=O)[C@H]2CCCN2C(=O)[C@H](CCCCN)NC(=O)[C@H](CCC(N)=O)NC(=O)[C@H](Cc2ccc(O)cc2)NC(=O)[C@@H]2CSSC[C@H](NC(=O)[C@H](CCCNC(N)=O)NC(=O)[C@H](CCCNC(=N)N)NC1=O)C(=O)N[C@@H](CCCNC(=N)N)C(=O)NCC(=O)N1CCC[C@@H]1C(=O)N[C@@H](CCCNC(=N)N)C(=O)N[C@@H](CCCNC(=N)N)C(=O)N[C@@H](Cc1ccc3ccccc3c1)C(=O)N2 [Ex. 90] (cyclo(VR[Cit]CRG[dP]RR[2Nal]CYQK[dP]P); disulfide 4-11)
In vitro
  GI50 at 48 h: 57 µM
CXCR4; [2]
  IC50: 19.5 nM
[1]
  Hemolysis at 100 μM: 0.1%

## C[C@@H](O)[C@@H]1NC(=O)[C@H](CCCNC(=N)N)NC(=O)[C@H](Cc2ccc(O)cc2)NC(=O)[C@@H]2CCCN2C(=O)[C@H]2CCCN2C(=O)[C@H](CCCCN)NC(=O)[C@H](CCC(N)=O)NC(=O)[C@H](Cc2ccc(O)cc2)NC(=O)[C@@H]2CSSC[C@H](NC1=O)C(=O)N[C@@H](CCCNC(=N)N)C(=O)NCC(=O)N1CCC[C@@H]1C(=O)N[C@@H](Cc1ccncc1)C(=O)N[C@@H](CCCNC(=N)N)C(=O)N[C@@H](Cc1c[nH]c3ccccc13)C(=O)N2 [Ex. 118] (cyclo(YRTCRG[dP][4Pal]RWCYQK[dP]P); disulfide 4-11)
In vitro
  GI50 at 48 h: 52 µM
CXCR4; [2]
  IC50: 7.6 nM
[1]
  Hemolysis at 100 μM: 0%

## N=C(N)NCCC[C@@H]1NC(=O)[C@@H]2CSSC[C@H](NC(=O)[C@H](Cc3ccc4ccccc4c3)NC(=O)[C@H](CCCNC(=N)N)NC(=O)[C@H](Cc3c[nH]c4ccccc34)NC(=O)[C@H]3CCCN3C(=O)CNC1=O)C(=O)N[C@@H](Cc1ccc(O)cc1)C(=O)N[C@@H](CCC(N)=O)C(=O)N[C@@H](CCCCN)C(=O)N1CCC[C@@H]1C(=O)N1CCC[C@H]1C(=O)N[C@@H](Cc1ccc(O)cc1)C(=O)N[C@@H](CCCNC(=N)N)C(=O)N[C@@H](CCCNC(N)=O)C(=O)N2 [Ex. 55] (cyclo(YR[Cit]CRG[dP]WR[2Nal]CYQK[dP]P); disulfide 4-11)
In vitro
  GI50 at 48 h: 43 µM
CXCR4; [2]
  IC50: 6.3 nM
[1]
  Hemolysis at 100 μM: 0.1%
